Results: publication PMC10786919, “Design-rules for stapled peptides with in vivo activity and their application to Mdm2/X antagonists” (Nature Communications, 2024)
In brackets after ≈: the same amount, converted by molar mass. Read-outs that look alike come from different tables or passages of the source. Positions of bridges follow the written chain, without caps; N, C: chain ends. Non-standard residues stand in square brackets, D forms with d. Residues, ends and D or L forms follow the SMILES beside them. Lys(N3) = [N-]=[N+]=NCCCC[C@H](N)C(=O)O; R8 = C=CCCCCCC[C@@](C)(N)C(=O)O; Cha = N[C@@H](CC1CCCCC1)C(=O)O; Cba = N[C@@H](CC1CCC1)C(=O)O; R5 = C=CCCC[C@@](C)(N)C(=O)O; S5 = C=CCCC[C@](C)(N)C(=O)O; Ahx = NCCCCCC(=O)O; βAla = NCCC(=O)O

Legend:
[1] = tested on: p53 responsive β-lactamase reporter in HCT116 cells; experiment: cells; type: cell-based; conditions: 0% FBS 4Hr
Description: HCT116 cells were stably transfected with a p53 responsive β-lactamase reporter and expanded in McCoy’s 5 A Medium with 10% fetal bovine serum (FBS), Blasticidin, and Penicillin/Streptomycin and then transferred to 1.5 ml freezing vials and stored under liquid nitrogen in growth media containing 5% DMSO. […] The cells were then seeded into a 384-well plate at a density of 8000 cells per well. […] The final working concentration of DMSO was 0.5%. β-lactamase activity was detected using the ToxBLAzer Dual Screen (Invitrogen), as per the manufacturer’s instructions. Measurements were made using the Envision multiplate reader (Perkin–Elmer). […] Measurements were taken a minimum of three times (biological replicates) and values are reported as geometric means of the replicates.

[2] = Solubility assay (kinetic solubility, PBS pH 7); type: physicochemical; conditions: pH 7, aqueous buffer, kinetic from dmso stock, pH 7, PBS; read-out: Solubility
How it was run: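 Values derive from peak-area ratios of sample versus a 100 µM standard, scaled by that standard's concentration.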

in vitro = experiment: in vitro
How it was run: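 Azido-peptide permeability was read as loss of NanoBRET signal (donor 450 nm, acceptor 610 nm) after adding NanoBret618-azide at 10 μM final.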

[3] = Lactate dehydrogenase (LDH) release assay; type: cell-based
How it was run: (§1)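 Geometric means of at least three independent biological runs are given for LDH release measured in HCT116 cells stably expressing a p53-driven β-lactamase reporter. Plating density was 8000 cells/well; DMSO in wells was 0.5%.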

HCT116 cells = experiment: Lactate dehydrogenase (LDH) release assay; type: cell-based
How it was run: as §1

[4] = Experimental LogD (partition coefficient); conditions: not stated, Partition Coeff LogD
[5] = read-out: p53 reporter assay: EC50
[6] = read-out: p53 reporter assay EC50

## CC(=O)N[C@H](C(=O)N[C@@H](CO)C(=O)N[C@@H](Cc1ccccc1)C(=O)N[C@]1(C)CCCCCCC=CCCC[C@@](C)(C(=O)N[C@@H](CCC(=O)O)C(=O)N[C@@H](CC(N)=O)C(=O)N[C@H](Cc2ccccc2)C(N)=O)NC(=O)[C@H](CC(C)C)NC(=O)[C@H](CC(C)C)NC(=O)[C@H](C)NC(=O)[C@H](Cc2c[nH]c3ccccc23)NC(=O)[C@H](Cc2ccc(O)cc2)NC(=O)[C@H](CCC(=O)O)NC1=O)[C@@H](C)O [MP-091]
[1]; [5]
  EC50: 5.28 µM

## CC(=O)N[C@@H](CCCCN)C(=O)NCCCCCC(=O)N[C@H](C(=O)N[C@@H](CO)C(=O)N[C@@H](Cc1ccccc1)C(=O)N[C@]1(C)CCCCCCCCCCC[C@@](C)(C(=O)N[C@@H](CCC(=O)O)C(=O)N[C@@H](CC(N)=O)C(=O)N[C@@H](Cc2ccccc2)C(N)=O)NC(=O)[C@H](CC(C)C)NC(=O)[C@H](CC(C)C)NC(=O)[C@H](C)NC(=O)[C@H](Cc2c[nH]c3ccccc23)NC(=O)[C@H](Cc2ccc(O)cc2)NC(=O)[C@H](CCC(=O)O)NC1=O)[C@@H](C)O [MP-049]
[1]; [6]
  EC50: 8.74 µM

## CC(=O)N[C@@H](CCCCN)C(=O)NCCCCCC(=O)N[C@H](C(=O)N[C@@H](CO)C(=O)N[C@@H](C)C(=O)N[C@]1(C)CCCCCCC=CCCC[C@@](C)(C(=O)N[C@@H](CCC(=O)O)C(=O)N[C@@H](CC(N)=O)C(=O)N[C@@H](Cc2ccccc2)C(N)=O)NC(=O)[C@H](CC(C)C)NC(=O)[C@H](CC(C)C)NC(=O)[C@H](C)NC(=O)[C@H](Cc2c[nH]c3ccccc23)NC(=O)[C@H](Cc2ccc(O)cc2)NC(=O)[C@H](CCC(=O)O)NC1=O)[C@@H](C)O [MP-068] (Ac-K[Ahx]TSA[R8]EYWALL[S5]ENF-NH2; staple 6-13)
[1]; [6]
  EC50: > 50 µM

## CC(=O)N[C@H](C(=O)N[C@@H](CO)C(=O)N[C@@H](C)C(=O)N[C@]1(C)CCCCCCC=CCCC[C@@](C)(C(N)=O)NC(=O)[C@H](CC(C)C)NC(=O)[C@H](CC(C)C)NC(=O)[C@H](C)NC(=O)[C@H](Cc2c[nH]c3ccccc23)NC(=O)[C@H](Cc2ccc(O)cc2)NC(=O)[C@H](CCC(=O)O)NC1=O)[C@@H](C)O [MP-067] (Ac-TSA[R8]EYWALL[S5]-NH2; staple 4-11)
[1]; [6]
  EC50: > 50 µM

## CC(=O)N[C@H](C(=O)N[C@@H](CO)C(=O)N[C@@H](Cc1ccccc1)C(=O)N[C@]1(C)CCCCCCC=CCCC[C@@](C)(C(N)=O)NC(=O)[C@H](CC2CCCCC2)NC(=O)[C@H](CC(C)C)NC(=O)[C@H](C)NC(=O)[C@H](Cc2c[nH]c3ccccc23)NC(=O)[C@H](Cc2ccc(O)cc2)NC(=O)[C@H](CCC(=O)O)NC1=O)[C@@H](C)O [MP-064] (Ac-TSF[R8]EYWAL[Cha][S5]-NH2; staple 4-11)
[1]; [6]
  EC50: 0.89 µM

## CC(=O)N[C@@H](CCCCN)C(=O)N[C@@H](CCCCN)C(=O)NCCCCCC(=O)N[C@H](C(=O)N[C@@H](CO)C(=O)N[C@@H](Cc1ccccc1)C(=O)N[C@]1(C)CCCCCC/C=C\CCC[C@@](C)(C(=O)N[C@@H](CCC(=O)O)C(=O)N[C@@H](CC(N)=O)C(=O)N[C@@H](Cc2ccccc2)C(N)=O)NC(=O)[C@H](CC(C)C)NC(=O)[C@H](CC(C)C)NC(=O)[C@H](C)NC(=O)[C@H](Cc2c[nH]c3ccccc23)NC(=O)[C@H](Cc2ccc(O)cc2)NC(=O)[C@H](CCC(=O)O)NC1=O)[C@@H](C)O [MP-095] (Ac-KK[Ahx]TSF[R8]EYWALL[S5]ENF-NH2; staple (Z) 7-14)
[1]; [5]
  EC50: 5.83 µM

## CC(=O)N[C@@H](CCCCN)C(=O)N[C@@H](CCCCN)C(=O)N[C@@H](CCCCN)C(=O)NCCCCCC(=O)N[C@H](C(=O)N[C@@H](CO)C(=O)N[C@@H](C)C(=O)N[C@]1(C)CCCCCCC=CCCC[C@@](C)(C(=O)N[C@@H](CCC(=O)O)C(=O)N[C@@H](CC(N)=O)C(=O)N[C@@H](Cc2ccccc2)C(N)=O)NC(=O)[C@H](CC(C)C)NC(=O)[C@H](CC(C)C)NC(=O)[C@H](C)NC(=O)[C@H](Cc2c[nH]c3ccccc23)NC(=O)[C@H](Cc2ccc(O)cc2)NC(=O)[C@H](CCC(=O)O)NC1=O)[C@@H](C)O [MP-070] (Ac-KKK[Ahx]TSA[R8]EYWALL[S5]ENF-NH2; staple 8-15)
[1]; [6]
  EC50: > 50 µM

## CC(=O)N[C@H](C(=O)N[C@@H](CO)C(=O)N[C@@H](Cc1ccccc1)C(=O)N[C@]1(C)CCCCCCCCCCC[C@@](C)(C(N)=O)NC(=O)[C@H](CC(C)C)NC(=O)[C@H](CC(C)C)NC(=O)[C@H](C)NC(=O)[C@H](Cc2c[nH]c3ccccc23)NC(=O)[C@H](Cc2ccc(O)cc2)NC(=O)[C@H](CCC(=O)O)NC1=O)[C@@H](C)O [MP-089]
[1]; [5]
  EC50: 1.23 µM

## CC(=O)N[C@@H](CCCCN)C(=O)N[C@@H](CCCCN)C(=O)NCCCCCC(=O)N[C@H](C(=O)N[C@@H](CO)C(=O)N[C@@H](C)C(=O)N[C@]1(C)CCCCCCC=CCCC[C@@](C)(C(=O)N[C@@H](CCC(=O)O)C(=O)N[C@@H](CC(N)=O)C(=O)N[C@@H](Cc2ccccc2)C(N)=O)NC(=O)[C@H](CC(C)C)NC(=O)[C@H](CC(C)C)NC(=O)[C@H](C)NC(=O)[C@H](Cc2c[nH]c3ccccc23)NC(=O)[C@H](Cc2ccc(O)cc2)NC(=O)[C@H](CCC(=O)O)NC1=O)[C@@H](C)O [MP-069] (Ac-KK[Ahx]TSA[R8]EYWALL[S5]ENF-NH2; staple 7-14)
[1]; [6]
  EC50: > 50 µM

## CC(=O)N[C@H](C(=O)N[C@@H](CO)C(=O)N[C@@H](Cc1ccccc1)C(=O)N[C@]1(C)CCCC=CCCC[C@](C)(C(=O)N[C@@H](CC(C)C)C(=O)N[C@@H](CC(C)C)C(=O)N2CCC[C@H]2C(=O)N[C@@H](CCC(=O)O)C(=O)N[C@@H](CC(N)=O)C(=O)N[C@@H](Cc2ccc(O)cc2)C(N)=O)NC(=O)[C@H](Cc2c[nH]c3ccccc23)NC(=O)[C@H](Cc2ccc(O)cc2)NC(=O)[C@H](CCC(=O)O)NC1=O)[C@@H](C)O [MP-2082] (Ac-TSF[R5]EYW[R5]LLPENY-NH2; staple 4-8)
[1]; [5]
  EC50: 43 µM

## CC(=O)N[C@H](C(=O)N[C@@H](CO)C(=O)N[C@@H](Cc1ccccc1)C(=O)N[C@]1(C)CCCCCCC=CCCC[C@@](C)(C(=O)N[C@@H](CCC(=O)O)C(=O)N[C@@H](CC(N)=O)C(N)=O)NC(=O)[C@H](CC(C)C)NC(=O)[C@H](CC(C)C)NC(=O)[C@H](C)NC(=O)[C@H](Cc2c[nH]c3ccccc23)NC(=O)[C@H](Cc2ccc(O)cc2)NC(=O)[C@H](CCC(=O)O)NC1=O)[C@@H](C)O [MP-086]
[1]; [5]
  EC50: 17.4 µM

## CC(=O)N[C@H](C(=O)N[C@@H](CO)C(=O)N[C@@H](Cc1ccccc1)C(=O)N[C@]1(C)CCCCCCC=CCCC[C@@](C)(C(=O)N[C@@H](CCC(=O)O)C(=O)N[C@@H](CC(N)=O)C(=O)N[C@@H](C)C(N)=O)NC(=O)[C@H](CC(C)C)NC(=O)[C@H](CC(C)C)NC(=O)[C@H](C)NC(=O)[C@H](Cc2c[nH]c3ccccc23)NC(=O)[C@H](Cc2ccc(O)cc2)NC(=O)[C@H](CCC(=O)O)NC1=O)[C@@H](C)O [MP-088]
[1]; [5]
  EC50: 22.3 µM

## CC(=O)N[C@H](C(=O)N[C@@H](CO)C(=O)N[C@@H](Cc1ccccc1)C(=O)N[C@]1(C)CCCC=CCCC[C@](C)(C(=O)N[C@@H](CC(C)C)C(=O)N[C@@H](CC(C)C)C(=O)N2CCC[C@H]2C(=O)N[C@@H](CCC(=O)O)C(=O)N[C@@H](CC(N)=O)C(=O)N[C@@H](Cc2ccccc2)C(N)=O)NC(=O)[C@H](Cc2c[nH]c3ccccc23)NC(=O)[C@H](Cc2ccc(O)cc2)NC(=O)[C@H](CCC(=O)O)NC1=O)[C@@H](C)O [MP-078] (Ac-TSF[R5]EYW[R5]LLPENF-NH2; staple 4-8)
[1]; [5]
  EC50: 37.7 µM

## CC(=O)N[C@@H](CCC(=O)O)C(=O)N[C@@H](CCC(=O)O)C(=O)N[C@@H](CCC(=O)O)C(=O)N[C@@H](CCCCN=[N+]=[N-])C(=O)NCCC(=O)N[C@@H](CC(C)C)C(=O)N[C@H](C(=O)N[C@@H](Cc1ccccc1)C(=O)N[C@]1(C)CCCCCCC=CCCC[C@@](C)(C(=O)N[C@@H](CCC(=O)O)C(=O)N[C@@H](CCC(=O)O)C(=O)N[C@@H](CCC(=O)O)C(N)=O)NC(=O)[C@H](CC2CCC2)NC(=O)[C@H](CCC(N)=O)NC(=O)[C@H](C)NC(=O)[C@H](Cc2c[nH]c3ccccc23)NC(=O)[C@H](Cc2ccc(O)cc2)NC(=O)[C@H](CCC(=O)O)NC1=O)[C@@H](C)O [MP-764] (Ac-EEE[Lys(N3)][βAla]LTF[R8]EYWAQ[Cba][S5]EEE-NH2; staple 9-16)
[2]
  solubility kinetic: 22 µM (≈ 55.3 µg/mL)
In vitro; Nanoclick permeability assay EC50
  cell entry EC50: 2.67 µM
[3]; LDH: Cytotoxicity assay: EC50
  EC50: > 50.6 µM
HCT116 cells
  LDH: Cytotoxicity assay: % Effect: -1.252%
[4]
  logD: 1.26

## CC(=O)N[C@@H](CCCCN=[N+]=[N-])C(=O)NCCC(=O)N[C@@H](CC(C)C)C(=O)N[C@H](C(=O)N[C@@H](Cc1ccccc1)C(=O)N[C@]1(C)CCCCCCC=CCCC[C@@](C)(C(=O)N[C@@H](C)C(=O)N[C@@H](CCC(N)=O)C(=O)N[C@@H](C)C(=O)N[C@@H](C)C(=O)N[C@@H](C)C(=O)N[C@H](C)C(N)=O)NC(=O)[C@H](CC2CCC2)NC(=O)[C@H](CCC(N)=O)NC(=O)[C@H](C)NC(=O)[C@H](Cc2c[nH]c3ccccc23)NC(=O)[C@H](Cc2ccc(O)cc2)NC(=O)[C@H](CCC(=O)O)NC1=O)[C@@H](C)O [MP-966] (Ac-[Lys(N3)][βAla]LTF[R8]EYWAQ[Cba][S5]AQAAA[dA]-NH2; staple 6-13)
[2]
  solubility kinetic: 160 µM (≈ 356 µg/mL)
In vitro
  cell entry EC50: 6.1 µM
[3]; 0% FBS 4Hr, read-out: LDH: Cytotoxicity assay EC50
  EC50: > 50.7 µM
[3]; 10% FBS 16Hr, read-out: LDH: Cytotoxicity assay EC50
  EC50: > 50.7 µM
HCT116 cells; 0% FBS 4Hr
  LDH: Cytotoxicity assay % Effect: -1.602%
HCT116 cells; 10% FBS 16Hr
  LDH: Cytotoxicity assay % Effect: 12.04%
[4]
  logD: 3.07
